This is an account of results in patent US10703843B2, “Compositions and methods for bonding glues, adhesives, and coatings to surfaces” (University of Virginia Patent Foundation, priority 2014, dated 2020).

The conditions of data set [1]: from Ref. [17]; cited from earlier work.
The nature of data set [2]: Measured solubilities of ECA and PECA in solvents and of solvents in PECA. Particulars: ±10%; for Solubility (wt %) ECA in: solubility of ECA in the listed solvent; for Solubility (wt %) PECA in: solubility of PECA in the listed solvent; for Solubility (wt %) in PECA: solubility of the listed solvent in PECA.
For data set [3] the following is noted: at 20° C.; from Refs [18], [19]; cited from earlier work.

Turning to `Cc1ccccc1` [toluene], in data set [1], the “ET^N normalized empirical parameter of solvent polarity” value (shortened to “ET^N normalized empirical parameter”) is listed as 0.099.

For the compound `CCCCCCC` [n-heptane], in data set [2], the “Solubility (wt %) ECA in” value is on record as 7.5 wt %, the “Solubility (wt %) PECA in” value is given as 0.05 wt % and the “Solubility (wt %) in PECA” value was 0.4 wt %. The “ET^N normalized empirical parameter” value in data set [1] is 0.012. The σ surface tension in data set [3] is on record as 20.1 mN/m.

For the compound `CC(C)=O` [acetone], in data set [2], the “Solubility (wt %) ECA in” value is “miscible”, the “Solubility (wt %) PECA in” value is “miscible” and the “Solubility (wt %) in PECA” value is reported as “miscible”. Further, the “ET^N normalized empirical parameter” value in data set [1] was 0.355. In addition, the σ surface tension in data set [3] was 24.1 mN/m.

Regarding xylene, in data set [2], the “Solubility (wt %) ECA in” value was “miscible” and the “Solubility (wt %) PECA in” value is listed as 0.24 wt %. Besides, in data set [1], the “ET^N normalized empirical parameter” value is given as 0.074. For the same compound, the σ surface tension in data set [3] is reported as 29.3 mN/m.

Consider `COCCOC` [1,2-dimethoxyethane], for which, in data set [2], the “Solubility (wt %) ECA in” value was “miscible”, the “Solubility (wt %) PECA in” value is reported as “miscible” and the “Solubility (wt %) in PECA” value is “miscible”.

Take `C1CCCCC1` [cyclohexane]: the “ET^N normalized empirical parameter” value in data set [1] was 0.006. Moreover, the σ surface tension in data set [3] is reported as 25.2 mN/m.

In the case of `CCOC(C)=O` [ethyl acetate], in data set [1], the “ET^N normalized empirical parameter” value is 0.228. Besides, in data set [3], the σ surface tension is 24.1 mN/m.

Consider `CCCCC` [n-pentane], for which, in data set [2], the “Solubility (wt %) ECA in” value amounted to 11.4 wt %, the “Solubility (wt %) PECA in” value is recorded as 0.11 wt % and the “Solubility (wt %) in PECA” value was determined as 0.8 wt %. Also, in data set [1], the “ET^N normalized empirical parameter” value is recorded as 0.009. In addition, the σ surface tension in data set [3] is 16.1 mN/m.

As to `CCCCCC` [n-hexane], the “ET^N normalized empirical parameter” value in data set [1] is on record as 0.009. Besides, the σ surface tension in data set [3] was 18.4 mN/m.

With `CCOCC` [diethyl ether], in data set [2], the “Solubility (wt %) ECA in” value is “miscible” and the “Solubility (wt %) PECA in” value stood at 0.10 wt %. Further, the “ET^N normalized empirical parameter” value in data set [1] is given as 0.117. The σ surface tension in data set [3] is given as 17.1 mN/m.
